The numbers were not newly measured in patent publication US9993560B2, “Rifaximin complexes” (Cipla Limited, priority 2008, dated 2018), which cites them from elsewhere.

Each structure is given as a SMILES string.

Regarding `CO[C@H]1/C=C/O[C@@]2(C)Oc3c(C)c(O)c4c(O)c(c5c(nc6cc(C)ccn65)c4c3C2=O)NC(=O)/C(C)=C\C=C\[C@H](C)[C@H](O)[C@@H](C)[C@@H](O)[C@@H](C)[C@H](OC(C)=O)[C@@H]1C` [β-form of rifaximin], the “solubility compared with other known forms of rifaximin” value was “least soluble known form of rifaximin”. Consider `CO[C@H]1/C=C/O[C@@]2(C)Oc3c(C)c(O)c4c(O)c(c5c(nc6cc(C)ccn65)c4c3C2=O)NC(=O)/C(C)=C\C=C\[C@H](C)[C@H](O)[C@@H](C)[C@@H](O)[C@@H](C)[C@H](OC(C)=O)[C@@H]1C` [rifaximin, (2S, 16Z, 18E, 20S, 21S, 22R, 23R, 24R, 25S, 26S, 27S, 28E)-5,6,21,23,25-pentahydroxy-27-methoxy-2,4,11,16,20,22,24,26-octamethyl-2,7-(epoxypentadeca-[1,11,13]-trienimino)benzofuro-[4,5-e]-pyrido-[1,2-a]-benzimidazole-1,15-(2H)-dione, 25-acetate], for which, where the note is “water”, the solubility in water result is “sparingly soluble”.
